Data as given in patent publication US7396837B2, “Antitumoral analogs of lamellarins” (Pharma Mar, S.A.U., priority 2002, dated 2008).

How the values were obtained:
Format in all cases: cell-based
[1] = tested on: IGROV-ET; test: SRB colorimetric cell growth inhibition assay, IGROV-ET (ET-743 resistant); settings: Homo sapiens, IGROV-ET; for GI50: GI=growth inhibition, read-out: GI50 IGROV-ET; for CC50: cell killing (cytotoxic effect), read-out: LC50 IGROV-ET; for IC (TGI): total growth inhibition (cytostatic effect), read-out: TGI IGROV-ET
How it was run: (§1)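 Human tumour cells continuously exposed to compound in 96-well culture; growth and viability quantified colorimetrically by sulforhodamine B staining. Mean ± SD from triplicate wells; GI (growth inhibition), TGI (total growth inhibition, cytostatic) and LC (cell killing, cytotoxic) parameters derived.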

[2] = tested on: SK-MEL-28; test: SRB colorimetric cell growth inhibition assay, SK-MEL-28; settings: Homo sapiens, SK-MEL-28, MEL-28; for GI50: GI=growth inhibition, read-out: GI50 MEL-28; for CC50: cell killing (cytotoxic effect), read-out: LC50 MEL-28; for IC (TGI): total growth inhibition (cytostatic effect), read-out: TGI MEL-28
How it was run: as §1

[3] = tested on: LoVo; test: SRB colorimetric cell growth inhibition assay, LoVo; settings: Homo sapiens, LoVo; for GI50: GI=growth inhibition, read-out: GI50 LOVO; for CC50: cell killing (cytotoxic effect), read-out: LC50 LOVO; for IC (TGI): total growth inhibition (cytostatic effect), read-out: TGI LOVO
How it was run: as §1

[4] = tested on: IGROV; test: SRB colorimetric cell growth inhibition assay, IGROV; settings: Homo sapiens, IGROV; for GI50: GI=growth inhibition, read-out: GI50 IGROV; for CC50: cell killing (cytotoxic effect), read-out: LC50 IGROV; for IC (TGI): total growth inhibition (cytostatic effect), read-out: TGI IGROV
How it was run: as §1

[5] = tested on: K-562; test: SRB colorimetric cell growth inhibition assay, K-562; settings: Homo sapiens, K562, K-562; for GI50: GI=growth inhibition, read-out: GI50 K-562; for CC50: cell killing (cytotoxic effect), read-out: LC50 K-562; for IC (TGI): total growth inhibition (cytostatic effect), read-out: TGI K-562
How it was run: as §1

[6] = tested on: SK-BR-3; test: SRB colorimetric cell growth inhibition assay, SK-BR-3; settings: Homo sapiens, SK-BR-3, SK-BR-3; for GI50: GI=growth inhibition, read-out: GI50 SK-BR-3; for CC50: cell killing (cytotoxic effect), read-out: LC50 SK-BR-3; for IC (TGI): total growth inhibition (cytostatic effect), read-out: TGI SK-BR-3
How it was run: as §1

[7] = tested on: A-549; test: SRB colorimetric cell growth inhibition assay, A-549; settings: Homo sapiens, A549, A-549; for GI50: GI=growth inhibition, read-out: GI50 A-549; for CC50: cell killing (cytotoxic effect), read-out: LC50 A-549; for IC (TGI): total growth inhibition (cytostatic effect), read-out: TGI A-549
How it was run: as §1

[8] = tested on: LNCaP; test: SRB colorimetric cell growth inhibition assay, LNCaP; settings: Homo sapiens, LNCaP, LN-caP; for GI50: GI=growth inhibition, read-out: GI50 LN-caP; for CC50: cell killing (cytotoxic effect), read-out: LC50 LN-caP; for IC (TGI): total growth inhibition (cytostatic effect), read-out: TGI LN-caP
How it was run: as §1

[9] = tested on: HeLa-APL; test: SRB colorimetric cell growth inhibition assay, HeLa-APL (aplidine resistant); settings: Homo sapiens, HELA-APL; for GI50: GI=growth inhibition, read-out: GI50 HELA-APL; for CC50: cell killing (cytotoxic effect), read-out: LC50 HELA-APL; for IC (TGI): total growth inhibition (cytostatic effect), read-out: TGI HELA-APL
How it was run: as §1

[10] = tested on: DU-145; test: SRB colorimetric cell growth inhibition assay, DU-145; settings: Homo sapiens, DU-145, DU-145; for GI50: GI=growth inhibition, read-out: GI50 DU-145; for CC50: cell killing (cytotoxic effect), read-out: LC50 DU-145; for IC (TGI): total growth inhibition (cytostatic effect), read-out: TGI DU-145
How it was run: as §1

[11] = tested on: HeLa; test: SRB colorimetric cell growth inhibition assay, HeLa; settings: Homo sapiens, HeLa; for GI50: GI=growth inhibition, read-out: GI50 HELA; for CC50: cell killing (cytotoxic effect), read-out: LC50 HELA; for IC (TGI): total growth inhibition (cytostatic effect), read-out: TGI HELA
How it was run: as §1

[12] = tested on: LoVo-Dox; test: SRB colorimetric cell growth inhibition assay, LoVo-Dox (MDR); settings: Homo sapiens, LOVO-DOX; for GI50: GI=growth inhibition, read-out: GI50 LOVO-DOX; for CC50: cell killing (cytotoxic effect), read-out: LC50 LOVO-DOX; for IC (TGI): total growth inhibition (cytostatic effect), read-out: TGI LOVO-DOX
How it was run: as §1

[13] = tested on: PANC-1; test: SRB colorimetric cell growth inhibition assay, PANC-1; settings: Homo sapiens, PANC-1, PANC-1; for GI50: GI=growth inhibition, read-out: GI50 PANC-1; for CC50: cell killing (cytotoxic effect), read-out: LC50 PANC-1; for IC (TGI): total growth inhibition (cytostatic effect), read-out: TGI PANC-1
How it was run: as §1

[14] = tested on: HT-29; test: SRB colorimetric cell growth inhibition assay, HT-29; settings: Homo sapiens, HT-29, HT-29; for GI50: GI=growth inhibition, read-out: GI50 HT-29; for CC50: cell killing (cytotoxic effect), read-out: LC50 HT-29; for IC (TGI): total growth inhibition (cytostatic effect), read-out: TGI HT-29
How it was run: as §1

COc1cc2c(cc1O)CCn1c-2c(Br)c2c3cc(OC)c(O)cc3oc(=O)c21 [Compound 188]
GI50 [1]: 2.51 µM | CC50 [1]: 21.8 µM | IC (TGI) [1]: 13.4 µM | GI50 [2]: 1.14 µM | CC50 [2]: 21.8 µM | IC (TGI) [2]: 21.8 µM | GI50 [3]: 4.5 µM | CC50 [3]: 21.8 µM | IC (TGI) [3]: 21.8 µM | GI50 [4]: 5.37 µM | CC50 [4]: 21.8 µM | IC (TGI) [4]: 20.2 µM | GI50 [5]: 0.908 µM | CC50 [5]: 21.8 µM | IC (TGI) [5]: 4.02 µM | GI50 [6]: 3.6 µM | CC50 [6]: 21.8 µM | IC (TGI) [6]: 11.5 µM | GI50 [7]: 10.8 µM | CC50 [7]: 21.8 µM | IC (TGI) [7]: 21.8 µM | GI50 [8]: 3.3 µM | CC50 [8]: 21.8 µM | IC (TGI) [8]: 21.8 µM | GI50 [9]: 0.984 µM | CC50 [9]: 15.8 µM | IC (TGI) [9]: 31.6 µM | GI50 [10]: 3.19 µM | CC50 [10]: 21.8 µM | IC (TGI) [10]: 21.8 µM | GI50 [11]: 1.05 µM | CC50 [11]: 21.8 µM | IC (TGI) [11]: 3.69 µM | GI50 [12]: 1.3 µM | CC50 [12]: 21.8 µM | IC (TGI) [12]: 21.8 µM | GI50 [13]: 5.56 µM | CC50 [13]: 21.8 µM | IC (TGI) [13]: 21.8 µM | GI50 [14]: 21.8 µM | CC50 [14]: 21.8 µM | IC (TGI) [14]: 21.8 µM

COc1cc(-c2c3c4cc(OC)c(OC(=O)CCCCCN)cc4oc(=O)c3n3ccc4c(OC(=O)CCCCCN)c(OC)c(OC)cc4c23)ccc1OC(=O)CCCCCN [Compound 193]
GI50 [1]: 0.136 µM | CC50 [1]: 9.59 µM | IC (TGI) [1]: 0.432 µM | GI50 [2]: 0.101 µM | CC50 [2]: 10.2 µM | IC (TGI) [2]: 0.497 µM | GI50 [3]: 0.35 µM | CC50 [3]: 10.2 µM | IC (TGI) [3]: 0.847 µM | GI50 [4]: 0.0741 µM | CC50 [4]: 3.48 µM | IC (TGI) [4]: 0.41 µM | GI50 [5]: 0.123 µM | CC50 [5]: 3.91 µM | IC (TGI) [5]: 0.399 µM | GI50 [6]: 0.227 µM | CC50 [6]: 10.2 µM | IC (TGI) [6]: 0.567 µM | GI50 [7]: 0.607 µM | CC50 [7]: 10.2 µM | IC (TGI) [7]: 10.2 µM | GI50 [8]: 0.118 µM | CC50 [8]: 5.49 µM | IC (TGI) [8]: 0.491 µM | GI50 [9]: 0.797 µM | CC50 [9]: 10.2 µM | IC (TGI) [9]: 10.2 µM | GI50 [10]: 0.0333 µM | CC50 [10]: 0.438 µM | IC (TGI) [10]: 0.128 µM | GI50 [11]: 0.35 µM | CC50 [11]: 10.2 µM | IC (TGI) [11]: 10.2 µM | GI50 [12]: 0.313 µM | CC50 [12]: 10.2 µM | IC (TGI) [12]: 10.2 µM | GI50 [13]: 0.278 µM | CC50 [13]: 10.2 µM | IC (TGI) [13]: 3.6 µM | GI50 [14]: 10.2 µM | CC50 [14]: 10.2 µM | IC (TGI) [14]: 10.2 µM
